Results: ChEMBL document CHEMBL5236645, “Novel imidazo[1,5-a]quinoxaline derivatives: SAR, selectivity and modeling challenges en route to the identification of an α5-GABAA receptor NAM” (Bioorg Med Chem Lett, 2023)

Assays:
[1] = target: T1, Gamma-aminobutyric acid receptor subunit alpha-1 (Homo sapiens, UniProt P14867); test: Displacement of flumazenil from alpha1 GABAA receptor (unknown origin)
T1 sequence (P14867 whole entry): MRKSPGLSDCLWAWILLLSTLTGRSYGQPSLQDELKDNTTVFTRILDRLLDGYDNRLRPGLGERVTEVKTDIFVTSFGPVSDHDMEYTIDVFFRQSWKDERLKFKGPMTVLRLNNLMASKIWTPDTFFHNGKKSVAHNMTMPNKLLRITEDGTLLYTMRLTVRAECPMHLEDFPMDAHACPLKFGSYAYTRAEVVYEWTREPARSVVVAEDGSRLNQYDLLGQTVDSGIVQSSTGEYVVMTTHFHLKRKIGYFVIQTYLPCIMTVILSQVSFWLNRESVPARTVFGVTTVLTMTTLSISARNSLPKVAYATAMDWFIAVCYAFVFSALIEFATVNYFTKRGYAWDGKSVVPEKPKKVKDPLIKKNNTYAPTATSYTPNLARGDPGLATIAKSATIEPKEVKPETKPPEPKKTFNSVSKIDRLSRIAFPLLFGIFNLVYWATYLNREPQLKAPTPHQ

[2] = target: T2, Gamma-aminobutyric acid receptor subunit alpha-5 (Homo sapiens, UniProt P31644); test: Displacement of flumazenil from alpha5 GABAA receptor (unknown origin)
T2 sequence (P31644 whole entry): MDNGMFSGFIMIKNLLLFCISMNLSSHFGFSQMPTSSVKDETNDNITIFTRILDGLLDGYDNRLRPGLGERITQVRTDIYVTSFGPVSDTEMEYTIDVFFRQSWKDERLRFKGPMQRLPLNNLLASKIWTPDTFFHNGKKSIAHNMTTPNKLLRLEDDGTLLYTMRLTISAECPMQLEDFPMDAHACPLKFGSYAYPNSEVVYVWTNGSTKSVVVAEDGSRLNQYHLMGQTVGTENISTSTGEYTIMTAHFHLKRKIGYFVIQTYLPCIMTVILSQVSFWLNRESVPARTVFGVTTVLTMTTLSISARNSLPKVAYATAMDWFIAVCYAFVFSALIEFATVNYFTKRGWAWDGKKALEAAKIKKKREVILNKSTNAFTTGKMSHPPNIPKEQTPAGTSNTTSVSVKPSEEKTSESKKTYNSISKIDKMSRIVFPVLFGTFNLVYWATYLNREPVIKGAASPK

[3] = target: T3, Gamma-aminobutyric acid receptor subunit alpha-5 (Homo sapiens) (UniProt P31644); test: Displacement of flumazenil from alpha5 GABAA receptor (unknown origin) at 1 uM relative to control
T3 sequence (whole entry): T2 sequence (P31644 whole entry)

[4] = target: T1, Gamma-aminobutyric acid receptor subunit alpha-1; test: Negative allosteric modulation of alpha1 GABAA (unknown origin)
[5] = target: T2, Gamma-aminobutyric acid receptor subunit alpha-5; test: Negative allosteric modulation of alpha5 GABAA (unknown origin)
[6] = target: T3, Gamma-aminobutyric acid receptor subunit alpha-5 (Homo sapiens); test: Displacement of flumazenil from alpha5 GABAA receptor (unknown origin) at 10 uM relative to control; conditions: filed as modulator

Row | SMILES | Ki [1] | Ki [2] | also measured
1 | Cc1cncc(Cn2c(=O)c3cncn3c3ccccc32)c1 | 0.06 µM | 0.017 µM | 
2 | N#Cc1ccc(Cn2c(=O)c3cncn3c3ccccc32)cn1 |  |  | Activity ([3]; filed as modulator): 61%
3 | Cc1ncccc1Cn1c(=O)c2cncn2c2ccccc21 |  | 0.107 µM | 
4 | Cc1ncc(Cn2c(=O)c3cncn3c3ccccc32)cn1 | 0.0036 µM | 0.0017 µM | 
5 | O=c1c2cncn2c2ccccc2n1Cc1ccncc1 |  |  | Activity ([3]; filed as modulator): 62%
6 | O=c1c2cncn2c2ccccc2n1-c1ccccn1 |  |  | Activity [3]: 7%
7 | O=c1c2cncn2c2ccccc2n1Cc1cncnc1 | 0.03 µM | 0.015 µM | 
8 | Cc1onc(-c2ccc(F)cc2)c1COc1ccc(C(=O)N2CCS(=O)(=O)CC2)cn1 [BASMISANIL] |  |  | Ki [4]: 1.21 µM; Ki [5]: 0.0044 µM
9 | Cc1ccc(Cn2c(=O)c3cncn3c3ccccc32)cn1 | 0.035 µM | 0.016 µM | 
10 | O=c1c2c(Cl)ncn2c2ccccc2n1Cc1ccccn1 | 0.0054 µM | 0.012 µM | 
11 | CN1C(=O)COc2cc(Cn3c(=O)c4cncn4c4ccccc43)ccc21 | 0.074 µM | 0.048 µM | 
12 | CCOC(=O)c1ncn2c1c(=O)n(Cc1cccnc1)c1ccccc12 | 0.0004 µM | 0.0003 µM | 
13 | COc1ccc2c(c1)n1cncc1c(=O)n2Cc1cccnc1 |  |  | Activity [3]: 18%
14 | Cc1cccc2c1n1cncc1c(=O)n2Cc1cccnc1 | 0.6 µM | 0.086 µM | 
15 | CC(C)(C)c1ccc2c(c1)n(Cc1cccnc1)c(=O)c1cncn12 | 0.31 µM | 0.21 µM | 
16 | O=c1[nH]c2ccccc2n2cncc12 |  |  | Activity [6]: 53%
17 | O=c1c2cncn2c2ccccc2n1Cc1cccnc1 | 0.032 µM | 0.028 µM | 
18 | O=c1c2cncn2c2ccc(Br)cc2n1Cc1cccnc1 | 0.076 µM | 0.089 µM | 
19 | O=c1c2cncn2c2cccnc2n1Cc1cccnc1 |  | 0.122 µM | 
20 | N#Cc1cccc2c1n1cncc1c(=O)n2Cc1cccnc1 |  |  | Activity [3]: 0%
21 | Cn1c(=O)c2cncn2c2ccccc21 |  | 2.19 µM | 
22 | CCn1c(=O)c2cncn2c2ccccc21 |  | 1.38 µM | 
23 | Cc1cc(-c2nnc3c4ccccc4c(OCc4ccccn4)nn23)no1 |  |  | Ki [4]: 0.0004 µM; Ki [5]: 0.0005 µM
24 | CCc1ncn2c1c(=O)n(Cc1ccccn1)c1ccccc12 |  | 0.36 µM | 
25 | Cn1cc(Cn2c(=O)c3cncn3c3ccccc32)cn1 | 0.123 µM | 0.064 µM | 

Row | SMILES | Ki [1] | Ki [2] | also measured
26 | O=c1c2cncn2c2ccccc2n1Cc1ccccc1 |  |  | Activity ([3]; filed as modulator): 61%
27 | O=c1c2cncn2c2c(Cl)cccc2n1Cc1cccnc1 | 2.15 µM | 0.295 µM | 
28 | O=c1c2cncn2c2ccccc2n1Cc1ccccn1 | 0.052 µM | 0.132 µM | 
29 | COc1ccc(Cn2c(=O)c3cncn3c3ccccc32)cc1 |  | 0.244 µM | 
30 | O=c1c2cncn2c2ccccc2n1CCc1ccccn1 |  |  | Activity [3]: 29%
31 | O=C(c1ccc(Cn2c(=O)c3cncn3c3ccccc32)cn1)N1CCOCC1 |  |  | Activity [3]: 38%
32 | COc1ccc2c(c1)n(Cc1cccnc1)c(=O)c1cncn12 | 0.12 µM | 0.02 µM | 
33 | Cc1noc(C)c1Cn1c(=O)c2c(C)ncn2c2ccccc21 |  |  | Activity ([3]; filed as modulator): 65%
34 | O=c1c2cncn2c2c(Cl)cc(Cl)cc2n1Cc1cccnc1 | 0.42 µM | 0.138 µM | 
35 | Cc1ncn2c1c(=O)n(Cc1ccccn1)c1ccccc12 | 0.016 µM | 0.065 µM | 
36 | O=c1c2cncn2c2ccccc2n1Cc1cnccn1 | 0.055 µM | 0.033 µM | 
37 | Cc1ccncc1Cn1c(=O)c2cncn2c2ccccc21 | 0.06 µM | 0.017 µM | 
38 | Cc1cc(Cc2ncn3c2c(=O)n(Cc2ccccn2)c2ccccc23)no1 |  | 0.379 µM | 
39 | COc1cc(Cl)c2c(c1)n(Cc1cccnc1)c(=O)c1cncn12 | 0.67 µM | 0.142 µM | 
40 | O=c1c2cncn2c2cc(Cl)ccc2n1Cc1cccnc1 |  | 0.84 µM | 
41 | COc1cc(Cl)c2c(c1)n(Cc1cnccc1C)c(=O)c1cncn12 | 2.1 µM | 0.687 µM | 
42 | O=c1c2cncn2c2ccc(Cl)cc2n1Cc1cccnc1 | 0.015 µM | 0.011 µM | 
43 | Cc1ncn2c1c(=O)n(Cc1cccnc1)c1ccccc12 | 0.008 µM | 0.018 µM | 
44 | O=c1c2cncn2c2cc(F)c(F)cc2n1Cc1cccnc1 |  |  | Activity ([3]; filed as modulator): 57%
45 | CCOC(=O)c1ncn2c1c(=O)n(Cc1cccnc1)c1cccc(Cl)c12 | 0.007 µM | 0.002 µM | 
46 | O=c1c2cncn2c2cc(OC(F)(F)F)ccc2n1Cc1cccnc1 |  |  | Activity ([3]; filed as modulator): 42%
47 | Cc1cc(Cn2c(=O)c3cncn3c3ccccc32)no1 | 0.032 µM | 0.056 µM | 
48 | O=c1c2c(CC3CC3)ncn2c2ccccc2n1Cc1ccccn1 | 0.023 µM | 0.08 µM | 
49 | Cc1cc(Cn2c(=O)c3c(C)ncn3c3ccccc32)no1 |  | 0.03 µM | 
50 | O=c1c2c(CO)ncn2c2ccccc2n1Cc1cccnc1 | 0.1 µM | 0.052 µM | 
